{"source": "ChEMBL document CHEMBL1201862", "about": "“PubChem BioAssay data set” (2004)", "key": {"Cytochrome P450 2C19": {"molecular_target": "Cytochrome P450 2C19 (Homo sapiens, UniProt P33261)", "experiment": "Cytochrome panel assay with activity outcomes. Panel member name: p450-cyp2c19 Compounds with AC50 equal or less than 10 uM are considered active", "assay_type": "functional", "conditions": "read-out: AC50"}, "[1]": {"experiment": "Luminescence Cell-Based Dose Retest to Confirm Inhibitors of Cancer Stem Cells. [Related pubchem assays (depositor defined):AID2717, AID2721]", "assay_type": "functional", "conditions": "Homo sapiens"}, "Cytochrome P450 2C9": {"molecular_target": "Cytochrome P450 2C9 (Homo sapiens, UniProt P11712)", "sequence (P11712 whole entry)": "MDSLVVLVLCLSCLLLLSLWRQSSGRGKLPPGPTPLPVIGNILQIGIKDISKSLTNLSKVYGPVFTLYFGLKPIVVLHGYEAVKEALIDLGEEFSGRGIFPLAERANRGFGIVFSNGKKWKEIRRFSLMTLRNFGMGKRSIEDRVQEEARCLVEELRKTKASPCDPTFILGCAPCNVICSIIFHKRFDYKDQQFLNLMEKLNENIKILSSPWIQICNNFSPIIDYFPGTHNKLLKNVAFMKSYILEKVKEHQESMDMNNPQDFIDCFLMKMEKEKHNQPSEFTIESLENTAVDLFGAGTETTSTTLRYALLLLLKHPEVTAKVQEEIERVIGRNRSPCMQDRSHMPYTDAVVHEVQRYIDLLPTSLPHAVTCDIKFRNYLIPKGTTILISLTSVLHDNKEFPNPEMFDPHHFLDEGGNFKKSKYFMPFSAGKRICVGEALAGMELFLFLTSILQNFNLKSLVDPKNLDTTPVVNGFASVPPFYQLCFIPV"}, "[2]": {"experiment": "cytotoxicity in HMLE control line with eGFP shRNA, dose response, counter-screen for HMLE_sh_ECad selective toxicity project, cell-based, HMLE_sh_eGFP, luminescence (AID 463074);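 also: HMLE human mammary epithelial cells expressing control shRNA against eGFP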", "assay_type": "functional, Homo sapiens"}, "[3]": {"experiment": "HEp-2 cell cytotoxicity, dose response, cytotoxicity control for RSV inhibitor project, HTS (AID 2410)", "assay_type": "functional", "conditions": "human respiratory syncytial virus"}, "Cytochrome P450 2D6": {"molecular_target": "Cytochrome P450 2D6 (Homo sapiens, UniProt P10635)", "sequence (P10635 whole entry)": "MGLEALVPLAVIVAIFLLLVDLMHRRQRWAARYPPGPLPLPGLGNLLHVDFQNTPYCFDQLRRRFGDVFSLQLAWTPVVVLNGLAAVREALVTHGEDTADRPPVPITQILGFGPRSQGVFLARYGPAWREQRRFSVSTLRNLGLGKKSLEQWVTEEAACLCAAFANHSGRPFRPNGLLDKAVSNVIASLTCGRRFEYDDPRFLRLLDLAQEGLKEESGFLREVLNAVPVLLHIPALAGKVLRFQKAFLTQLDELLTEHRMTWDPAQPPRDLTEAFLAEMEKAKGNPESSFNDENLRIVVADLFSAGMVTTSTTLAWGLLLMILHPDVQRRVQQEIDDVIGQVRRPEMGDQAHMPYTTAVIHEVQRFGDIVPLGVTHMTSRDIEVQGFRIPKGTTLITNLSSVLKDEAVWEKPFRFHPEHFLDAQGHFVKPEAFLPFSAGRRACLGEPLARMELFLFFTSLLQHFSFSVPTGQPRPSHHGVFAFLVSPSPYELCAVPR"}, "[4]": {"experiment": "Luminescence Cell-Based Dose Response HTS to Identify Inhibitors of 5'UTR Stem-Loop Driven Prion Protein mRNA Translation in H4 Neuroglioblastoma Cells. [Related pubchem assays: 1827 (Project Summary), 1813 (Primary HTS)]", "assay_type": "functional"}, "Jurkat": {"system": "Jurkat", "experiment": "antigen receptor-induced NF-kB inhibitors, dose response, Jurkat, luciferase reporter, luminescence, B- and T-cell (AID 489004);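 also: NF-kB luciferase reporter Jurkat cells stimulated with PMA plus ionomycin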", "assay_type": "functional, cell-based", "conditions": "Homo sapiens"}, "[5]": {"experiment": "inhibitors of SNCA 5'UTR-driven reporter translation, confirmation, H4 neuroglioma cells, luminescence (AID 1988)", "assay_type": "functional, cell-based"}, "[6]": {"experiment": "inhibitors of firefly luciferase expression or activity, dose response, H4 neuroglioma cells, luminescence (AID 1990)", "assay_type": "functional, cell-based"}, "[7]": {"experiment": "cytotoxicity in HEK-293T NF-kB-Luc cells, dose response, cytotoxicity control for B/T-cell NF-kB inhibitor project, cell-based, uHTS hits (AID 489019);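 also: IC50 reflects cytotoxicity as loss of cell viability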", "assay_type": "functional"}, "[8]": {"molecular_target": "T1, Microphthalmia-associated transcription factor (Homo sapiens, UniProt O75030)", "T1 sequence (O75030 whole entry)": "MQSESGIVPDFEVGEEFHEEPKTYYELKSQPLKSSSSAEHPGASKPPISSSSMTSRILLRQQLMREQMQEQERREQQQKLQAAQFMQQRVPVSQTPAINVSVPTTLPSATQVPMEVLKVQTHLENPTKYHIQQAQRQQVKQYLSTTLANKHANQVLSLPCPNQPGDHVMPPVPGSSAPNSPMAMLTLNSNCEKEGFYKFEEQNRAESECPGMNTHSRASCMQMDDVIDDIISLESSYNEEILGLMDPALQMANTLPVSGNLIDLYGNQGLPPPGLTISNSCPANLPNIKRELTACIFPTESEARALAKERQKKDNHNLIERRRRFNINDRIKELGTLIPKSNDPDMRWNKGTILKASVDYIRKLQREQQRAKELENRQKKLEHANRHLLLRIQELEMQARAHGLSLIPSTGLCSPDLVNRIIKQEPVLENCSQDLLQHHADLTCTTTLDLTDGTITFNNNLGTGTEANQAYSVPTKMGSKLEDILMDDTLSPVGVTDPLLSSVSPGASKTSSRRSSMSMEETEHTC", "experiment": "TRPM1 promoter luciferase signal decrease, dose response, MITF inhibitor project, cell-based, SK-MEL-5, cherry-picked, set 3 (AID 493073)", "assay_type": "functional"}, "[9]": {"experiment": "NIH-3T3 fibroblast cytotoxicity, dose response, cytotoxicity control, cell-based, fluorescence, Alamar Blue, secondary assay (AID 2327);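 also: NIH-3T3 mouse fibroblasts cultured with fluconazole at 8 µg/mL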", "assay_type": "functional"}, "[10]": {"experiment": "C. albicans growth with fluconazole, confirmation, fluorescence, retest (AID 2467)", "assay_type": "functional, cell-based"}, "Beta-galactosidase": {"molecular_target": "Beta-galactosidase (Escherichia coli, UniProt Q8VNN2)", "sequence (Q8VNN2 whole entry)": "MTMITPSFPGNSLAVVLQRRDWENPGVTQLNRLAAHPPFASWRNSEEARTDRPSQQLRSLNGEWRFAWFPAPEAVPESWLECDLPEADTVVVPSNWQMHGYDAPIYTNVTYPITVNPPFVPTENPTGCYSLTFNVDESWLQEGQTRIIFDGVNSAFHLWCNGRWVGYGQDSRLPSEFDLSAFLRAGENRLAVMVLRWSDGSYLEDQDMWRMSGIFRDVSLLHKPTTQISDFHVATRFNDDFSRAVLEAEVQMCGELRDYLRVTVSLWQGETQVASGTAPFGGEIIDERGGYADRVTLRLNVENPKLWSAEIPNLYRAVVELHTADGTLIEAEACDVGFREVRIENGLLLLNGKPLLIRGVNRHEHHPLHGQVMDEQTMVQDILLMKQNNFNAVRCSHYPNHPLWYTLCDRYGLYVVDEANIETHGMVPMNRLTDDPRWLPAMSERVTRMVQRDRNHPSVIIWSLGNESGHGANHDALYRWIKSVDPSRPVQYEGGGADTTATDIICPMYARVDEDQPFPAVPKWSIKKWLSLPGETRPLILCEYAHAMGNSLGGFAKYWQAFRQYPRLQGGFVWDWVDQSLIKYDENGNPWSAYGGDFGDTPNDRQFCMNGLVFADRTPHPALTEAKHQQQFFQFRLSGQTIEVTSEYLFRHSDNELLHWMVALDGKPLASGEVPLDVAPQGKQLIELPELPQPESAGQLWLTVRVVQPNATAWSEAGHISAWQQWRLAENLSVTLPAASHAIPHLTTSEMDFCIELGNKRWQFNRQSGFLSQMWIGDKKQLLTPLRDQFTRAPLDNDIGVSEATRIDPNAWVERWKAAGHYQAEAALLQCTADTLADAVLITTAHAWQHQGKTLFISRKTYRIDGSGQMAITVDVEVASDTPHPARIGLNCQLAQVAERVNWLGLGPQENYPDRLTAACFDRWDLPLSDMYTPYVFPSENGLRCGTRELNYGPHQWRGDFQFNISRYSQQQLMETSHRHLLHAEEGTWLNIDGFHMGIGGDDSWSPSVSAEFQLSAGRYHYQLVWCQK", "experiment": "PubChem AID 485352", "assay_type": "functional"}, "[11]": {"molecular_target": "Type-1 angiotensin II receptor (Homo sapiens, UniProt P30556)", "experiment": "AT1 receptor antagonists, dose response, selectivity assay for APJ receptor antagonist project, cell-based, uHTS hits (AID 463214);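 also: antagonist potency against angiotensin II stimulated AT1 response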", "assay_type": "functional"}, "Keap1/Nrf2": {"molecular_target": "Keap1/Nrf2 (Homo sapiens, UniProt Q14145)", "sequence (Q16236 whole entry)": "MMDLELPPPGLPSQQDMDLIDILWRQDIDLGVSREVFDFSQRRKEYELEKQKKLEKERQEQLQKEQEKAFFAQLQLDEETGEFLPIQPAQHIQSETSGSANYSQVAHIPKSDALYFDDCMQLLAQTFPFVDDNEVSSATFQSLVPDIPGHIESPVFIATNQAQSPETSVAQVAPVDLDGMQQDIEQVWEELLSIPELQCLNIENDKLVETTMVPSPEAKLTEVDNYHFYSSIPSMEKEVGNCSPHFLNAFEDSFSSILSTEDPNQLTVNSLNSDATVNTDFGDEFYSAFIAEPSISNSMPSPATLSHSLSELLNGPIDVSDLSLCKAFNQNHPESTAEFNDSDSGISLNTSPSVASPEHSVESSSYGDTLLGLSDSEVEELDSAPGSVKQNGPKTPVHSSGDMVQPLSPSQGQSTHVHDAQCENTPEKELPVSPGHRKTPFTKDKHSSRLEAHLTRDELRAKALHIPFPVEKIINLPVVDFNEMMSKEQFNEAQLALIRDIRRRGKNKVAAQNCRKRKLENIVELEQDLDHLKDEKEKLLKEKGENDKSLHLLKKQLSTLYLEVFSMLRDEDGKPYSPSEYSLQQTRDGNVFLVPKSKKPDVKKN", "sequence (Q14145 whole entry)": "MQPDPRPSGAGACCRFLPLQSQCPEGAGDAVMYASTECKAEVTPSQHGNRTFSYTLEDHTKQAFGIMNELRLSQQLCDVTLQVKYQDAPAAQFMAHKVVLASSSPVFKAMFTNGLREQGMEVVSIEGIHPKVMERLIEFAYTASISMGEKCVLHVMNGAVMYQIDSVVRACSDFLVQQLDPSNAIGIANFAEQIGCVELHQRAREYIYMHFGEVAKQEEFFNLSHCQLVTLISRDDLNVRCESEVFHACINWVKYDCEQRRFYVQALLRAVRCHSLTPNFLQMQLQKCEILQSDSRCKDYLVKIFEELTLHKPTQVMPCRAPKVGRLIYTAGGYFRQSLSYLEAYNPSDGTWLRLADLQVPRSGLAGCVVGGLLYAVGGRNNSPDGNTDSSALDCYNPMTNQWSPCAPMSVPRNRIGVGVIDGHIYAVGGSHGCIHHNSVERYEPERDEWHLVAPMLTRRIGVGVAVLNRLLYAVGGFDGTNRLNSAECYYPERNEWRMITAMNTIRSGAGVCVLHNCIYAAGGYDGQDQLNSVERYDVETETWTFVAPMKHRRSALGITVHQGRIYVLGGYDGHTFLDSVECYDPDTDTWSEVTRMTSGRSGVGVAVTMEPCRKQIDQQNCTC", "experiment": "Keap1-Nrf2 protein-protein interaction inhibitors, dose response, biochemical, fluorescence polarization, cherry-picked samples (AID 588683)"}, "[12]": {"molecular_target": "T2, Rac GTPase-activating protein 1 (Homo sapiens, UniProt Q9H0H5)", "T2 sequence (Q9H0H5 whole entry)": "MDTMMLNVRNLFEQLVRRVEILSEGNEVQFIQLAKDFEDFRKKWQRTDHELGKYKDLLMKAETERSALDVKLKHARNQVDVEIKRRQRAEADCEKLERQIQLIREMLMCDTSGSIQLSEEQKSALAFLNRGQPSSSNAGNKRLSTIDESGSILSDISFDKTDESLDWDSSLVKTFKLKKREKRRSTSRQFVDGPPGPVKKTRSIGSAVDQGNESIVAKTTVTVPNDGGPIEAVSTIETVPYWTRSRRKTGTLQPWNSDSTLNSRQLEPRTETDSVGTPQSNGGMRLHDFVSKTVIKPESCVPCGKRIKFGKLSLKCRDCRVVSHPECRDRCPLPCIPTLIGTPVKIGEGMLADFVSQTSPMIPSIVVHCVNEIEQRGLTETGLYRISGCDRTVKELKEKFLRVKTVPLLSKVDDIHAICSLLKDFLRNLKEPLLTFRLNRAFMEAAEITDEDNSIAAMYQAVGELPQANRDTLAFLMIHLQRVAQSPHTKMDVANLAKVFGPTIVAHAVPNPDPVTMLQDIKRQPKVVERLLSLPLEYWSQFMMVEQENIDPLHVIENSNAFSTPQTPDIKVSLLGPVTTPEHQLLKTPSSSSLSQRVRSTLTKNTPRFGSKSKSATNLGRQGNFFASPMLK", "experiment": "MgcRacGAP GTPase-activating activity inhibitors, confirmation, biochemical, ADP Hunter fluorescence, primary and confirmatory (AID 624330)", "assay_type": "functional"}, "[13]": {"molecular_target": "T3, Small ubiquitin-related modifier 1 (Homo sapiens, UniProt P63165)", "T3 sequence (P63165 whole entry)": "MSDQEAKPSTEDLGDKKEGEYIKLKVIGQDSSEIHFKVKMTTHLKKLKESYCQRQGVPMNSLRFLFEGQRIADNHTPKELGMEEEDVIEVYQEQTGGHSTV", "experiment": "inhibitors of SUMO1 partner interactions, dose response, biochemical, FRET (AID 624383)", "assay_type": "functional", "conditions": "read-out: IC50_Mean"}, "[14]": {"molecular_target": "RNA-editing ligase 1, mitochondrial (Trypanosoma brucei brucei, UniProt P86926)", "sequence (P86926 whole entry)": "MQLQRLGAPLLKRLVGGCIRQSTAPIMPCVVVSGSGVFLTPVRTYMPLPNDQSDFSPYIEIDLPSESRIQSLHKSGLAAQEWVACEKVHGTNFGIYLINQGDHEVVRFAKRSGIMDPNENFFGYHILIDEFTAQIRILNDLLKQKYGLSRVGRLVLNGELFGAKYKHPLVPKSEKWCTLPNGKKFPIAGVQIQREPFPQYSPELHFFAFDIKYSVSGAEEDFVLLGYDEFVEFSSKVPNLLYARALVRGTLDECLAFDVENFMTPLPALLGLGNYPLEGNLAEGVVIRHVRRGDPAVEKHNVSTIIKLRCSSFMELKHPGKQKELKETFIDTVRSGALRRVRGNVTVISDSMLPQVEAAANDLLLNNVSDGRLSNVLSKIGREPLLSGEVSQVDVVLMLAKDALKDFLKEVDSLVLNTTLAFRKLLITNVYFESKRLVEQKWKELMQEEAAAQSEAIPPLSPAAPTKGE", "experiment": "TbREL1 ligase inhibitors, dose response, biochemical, fluorescence, Trypanosoma brucei (AID 1117295)", "assay_type": "functional"}, "ORF 73": {"molecular_target": "ORF 73 (Human herpesvirus 8, UniProt O40947)", "experiment": "inhibitors of C-LANA binding to LBS DNA, dose response, biochemical, fluorescence polarization, cherry-picked samples (AID 504725);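 also: fluorescence polarization of a labeled DNA duplex reporting LANA DNA binding; potency is for inhibitors that block LANA binding to the DNA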", "set-up": "species or system Human gammaherpesvirus 8"}, "Genome polyprotein": {"molecular_target": "Genome polyprotein (dengue virus type 2, UniProt P29990)", "experiment": "Dengue-2 NS5 methyltransferase inhibitors, primary screen, biochemical, confirmation dose response (AID 588689)", "assay_type": "functional"}, "HeLa": {"system": "HeLa", "experiment": "HeLa cell cytotoxicity, dose response, cytotoxicity control, 24 h, cherry-picked samples (AID 504726);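 also: potency for cytotoxicity as loss of luminescence signal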", "assay_type": "functional, cell-based", "conditions": "Homo sapiens"}, "[15]": {"molecular_target": "Glucose-6-phosphate 1-dehydrogenase (Homo sapiens, UniProt P11413)", "sequence (P11413 whole entry)": "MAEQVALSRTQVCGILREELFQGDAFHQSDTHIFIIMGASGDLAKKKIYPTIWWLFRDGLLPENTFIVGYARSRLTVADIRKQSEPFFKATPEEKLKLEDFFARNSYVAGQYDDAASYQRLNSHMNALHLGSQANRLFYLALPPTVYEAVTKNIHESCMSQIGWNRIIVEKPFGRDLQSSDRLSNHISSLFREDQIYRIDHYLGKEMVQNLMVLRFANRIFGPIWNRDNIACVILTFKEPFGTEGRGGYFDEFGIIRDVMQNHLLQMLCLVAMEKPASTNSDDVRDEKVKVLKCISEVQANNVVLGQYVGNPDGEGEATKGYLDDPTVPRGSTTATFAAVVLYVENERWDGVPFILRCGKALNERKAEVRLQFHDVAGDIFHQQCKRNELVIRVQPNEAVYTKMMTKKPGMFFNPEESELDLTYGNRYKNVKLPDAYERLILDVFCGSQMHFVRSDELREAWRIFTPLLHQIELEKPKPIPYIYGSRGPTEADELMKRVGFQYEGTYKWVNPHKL", "experiment": "human G6PD enzyme inhibitors, dose response, selectivity assay for P. falciparum G6PD inhibitor project, biochemical, fluorescence (AID 504792)", "assay_type": "functional"}, "ELAV-like protein 1": {"molecular_target": "ELAV-like protein 1 (Homo sapiens, UniProt Q15717)", "sequence (Q15717 whole entry)": "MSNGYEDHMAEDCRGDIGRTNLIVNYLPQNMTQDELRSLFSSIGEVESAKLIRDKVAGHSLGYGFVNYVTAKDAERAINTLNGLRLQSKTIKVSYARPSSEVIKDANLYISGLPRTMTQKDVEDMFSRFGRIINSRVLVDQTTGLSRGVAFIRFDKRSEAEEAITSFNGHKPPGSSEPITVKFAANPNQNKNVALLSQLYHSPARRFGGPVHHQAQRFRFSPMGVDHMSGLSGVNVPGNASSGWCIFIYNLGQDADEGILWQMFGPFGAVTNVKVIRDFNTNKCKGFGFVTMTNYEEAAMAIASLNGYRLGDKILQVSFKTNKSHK", "experiment": "Identify HuR specific inhibitors.", "assay_type": "functional"}, "[16]": {"molecular_target": "T3, Small ubiquitin-related modifier 1", "experiment": "inhibitors of SUMO1 peptide binding, dose response, biochemical, fluorescence polarization, uHTS hits (AID 624382)", "assay_type": "functional", "conditions": "read-out: IC50_Mean"}, "[17]": {"molecular_target": "T4, Histone-lysine N-methyltransferase NSD2 (Homo sapiens, UniProt O96028)", "T4 sequence (O96028 whole entry)": "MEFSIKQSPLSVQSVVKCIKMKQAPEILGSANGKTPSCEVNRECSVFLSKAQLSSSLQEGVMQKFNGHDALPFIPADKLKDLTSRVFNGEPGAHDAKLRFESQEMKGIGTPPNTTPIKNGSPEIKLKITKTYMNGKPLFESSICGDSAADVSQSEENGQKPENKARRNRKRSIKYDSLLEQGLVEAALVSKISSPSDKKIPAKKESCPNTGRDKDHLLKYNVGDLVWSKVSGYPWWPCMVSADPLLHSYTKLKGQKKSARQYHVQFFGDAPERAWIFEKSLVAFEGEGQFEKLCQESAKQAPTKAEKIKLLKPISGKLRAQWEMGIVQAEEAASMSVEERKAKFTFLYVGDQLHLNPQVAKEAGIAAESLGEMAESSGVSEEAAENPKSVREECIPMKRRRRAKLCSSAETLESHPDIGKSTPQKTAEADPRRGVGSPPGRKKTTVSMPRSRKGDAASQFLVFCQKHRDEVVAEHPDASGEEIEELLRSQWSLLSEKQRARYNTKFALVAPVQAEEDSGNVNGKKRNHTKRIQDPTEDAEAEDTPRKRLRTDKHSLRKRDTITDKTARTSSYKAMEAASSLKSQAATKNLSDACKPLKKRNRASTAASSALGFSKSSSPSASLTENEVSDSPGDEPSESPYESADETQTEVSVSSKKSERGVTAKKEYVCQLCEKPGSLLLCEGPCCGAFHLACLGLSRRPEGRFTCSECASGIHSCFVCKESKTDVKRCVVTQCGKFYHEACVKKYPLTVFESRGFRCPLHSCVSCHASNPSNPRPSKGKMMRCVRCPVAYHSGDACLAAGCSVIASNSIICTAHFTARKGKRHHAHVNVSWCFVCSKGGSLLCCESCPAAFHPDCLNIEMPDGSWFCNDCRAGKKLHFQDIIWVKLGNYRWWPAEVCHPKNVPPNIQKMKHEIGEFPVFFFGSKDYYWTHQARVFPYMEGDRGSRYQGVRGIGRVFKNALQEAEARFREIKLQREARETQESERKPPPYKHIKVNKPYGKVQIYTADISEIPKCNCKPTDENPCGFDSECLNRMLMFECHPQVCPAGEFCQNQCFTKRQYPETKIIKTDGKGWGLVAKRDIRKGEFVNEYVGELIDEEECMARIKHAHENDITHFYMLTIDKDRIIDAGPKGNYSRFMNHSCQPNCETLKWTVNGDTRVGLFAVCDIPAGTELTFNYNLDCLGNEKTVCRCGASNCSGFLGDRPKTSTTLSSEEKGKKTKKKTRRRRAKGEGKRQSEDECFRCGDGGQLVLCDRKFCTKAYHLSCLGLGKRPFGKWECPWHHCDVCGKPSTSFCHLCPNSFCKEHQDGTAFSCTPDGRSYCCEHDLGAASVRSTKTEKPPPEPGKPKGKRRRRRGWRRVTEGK", "assay_type": "biochemical"}}, "note": "Activity calls are given as the source filed them."}
{"smiles": "O=C(Nc1cccc2ccccc12)c1nn(C23CC4CC(CC(C4)C2)C3)cc1Br", "values": [{"measurement": "AC50", "setting": "Cytochrome P450 2C19", "result": "2.24 µM (inconclusive)"}, {"measurement": "AC50", "setting": "[1]", "result": "1.83 µM (active)"}, {"measurement": "AC50", "setting": "Cytochrome P450 2C9", "result": "inconclusive"}, {"measurement": "AC50", "setting": "[2]", "result": "40.6 µM (active)"}, {"measurement": "CC50", "setting": "[3]", "result": "27.8 µM (active)"}, {"measurement": "AC50", "setting": "Cytochrome P450 2D6", "result": "inconclusive"}]}
{"smiles": "COc1cc([N+](=O)[O-])cc(/C=N/NC(=O)c2ccc(NC(=O)c3ccc(C)cc3)cc2)c1O", "values": [{"measurement": "EC50", "setting": "[4]", "result": "2.62 µM (active)"}, {"measurement": "IC50", "setting": "Jurkat", "result": "6.36 µM (active)"}, {"measurement": "EC50", "setting": "[5]", "result": "1.88 µM (active)"}, {"measurement": "EC50", "setting": "[6]", "result": "2.62 µM (active)"}, {"measurement": "IC50", "setting": "[7]", "result": "> 80 µM (inactive)"}, {"measurement": "AC50", "setting": "[8]", "result": "1.55 µM (active)"}, {"measurement": "EC50", "setting": "[9]", "result": "1.01 µM (inconclusive)"}, {"measurement": "EC50", "setting": "[10]", "result": "1.49 µM (active)"}]}
{"smiles": "Cc1ccc(C(=O)CNc2ccccc2)cc1", "values": [{"measurement": "EC50", "setting": "Beta-galactosidase", "result": "> 40 µM (inactive)"}, {"measurement": "IC50", "setting": "[11]", "result": "9.14 µM (active)"}]}
{"smiles": "O=C(O)c1cc(N2C(=O)C=CC2=O)cc(N2C(=O)C=CC2=O)c1", "values": [{"measurement": "AC50", "setting": "Keap1/Nrf2", "result": "19 µM (active)"}, {"measurement": "IC50", "setting": "[12]", "result": "19.7 µM (active)"}, {"measurement": "IC50", "setting": "[13]", "result": "13.7 µM (active)"}, {"measurement": "IC50", "setting": "[14]", "result": "12.3 µM (inactive)"}, {"measurement": "AC50", "setting": "ORF 73", "result": "94.5 µM (active)"}, {"measurement": "IC50", "setting": "Genome polyprotein", "result": "19.6 µM (active)"}, {"measurement": "AC50", "setting": "HeLa", "result": "> 350 µM (inactive)"}, {"measurement": "IC50", "setting": "[15]", "result": "61.8 µM (inactive)"}, {"measurement": "IC50", "setting": "ELAV-like protein 1", "result": "26.9 µM (inactive)"}, {"measurement": "IC50", "setting": "[16]", "result": "> 66.6 µM (inactive)"}, {"measurement": "AC50", "setting": "[17]", "result": "6.9 µM (active)"}]}
